Holding throughout (assay type): biochemical
Experiment [1] has as its target T1, PI3Kδ (Homo sapiens, UniProt O00329).
T1 construct: made in house
Kind of experiment: TR-FRET enzymatic activity assay, PI3Kδ.

Experiment [2] has as its target T2, PI3Kβ (Homo sapiens, UniProt P42338).
T2 construct: made in house
Kind of experiment: TR-FRET enzymatic activity assay, PI3Kβ.

Experiment [3] concerns the target T3, PI3Kγ (Homo sapiens, UniProt P48736).
T3 construct: made in house
Kind of experiment: TR-FRET enzymatic activity assay, PI3Kγ. The settings on record: read-out: PI3Kγ IC50. An outline of the steps:
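Compounds were profiled per isoform in a biochemical kinase reaction, with activity detected by time-resolved fluorescence resonance energy transfer.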

Where [4] appears, read: Table 2, TR-FRET, 2x Km ATP, 30 minutes at 25° C.

We go through 23 compounds from patent US10308639B2, “Phosphatidylinositol 3-kinase inhibitors” (Gilead Sciences, Inc., priority 2014, dated 2019).

Like-named read-outs stand apart in the source and are kept apart here.

What is called IC50 is the midpoint of a concentration-inhibition curve.

T3 sequence (P48736 whole entry): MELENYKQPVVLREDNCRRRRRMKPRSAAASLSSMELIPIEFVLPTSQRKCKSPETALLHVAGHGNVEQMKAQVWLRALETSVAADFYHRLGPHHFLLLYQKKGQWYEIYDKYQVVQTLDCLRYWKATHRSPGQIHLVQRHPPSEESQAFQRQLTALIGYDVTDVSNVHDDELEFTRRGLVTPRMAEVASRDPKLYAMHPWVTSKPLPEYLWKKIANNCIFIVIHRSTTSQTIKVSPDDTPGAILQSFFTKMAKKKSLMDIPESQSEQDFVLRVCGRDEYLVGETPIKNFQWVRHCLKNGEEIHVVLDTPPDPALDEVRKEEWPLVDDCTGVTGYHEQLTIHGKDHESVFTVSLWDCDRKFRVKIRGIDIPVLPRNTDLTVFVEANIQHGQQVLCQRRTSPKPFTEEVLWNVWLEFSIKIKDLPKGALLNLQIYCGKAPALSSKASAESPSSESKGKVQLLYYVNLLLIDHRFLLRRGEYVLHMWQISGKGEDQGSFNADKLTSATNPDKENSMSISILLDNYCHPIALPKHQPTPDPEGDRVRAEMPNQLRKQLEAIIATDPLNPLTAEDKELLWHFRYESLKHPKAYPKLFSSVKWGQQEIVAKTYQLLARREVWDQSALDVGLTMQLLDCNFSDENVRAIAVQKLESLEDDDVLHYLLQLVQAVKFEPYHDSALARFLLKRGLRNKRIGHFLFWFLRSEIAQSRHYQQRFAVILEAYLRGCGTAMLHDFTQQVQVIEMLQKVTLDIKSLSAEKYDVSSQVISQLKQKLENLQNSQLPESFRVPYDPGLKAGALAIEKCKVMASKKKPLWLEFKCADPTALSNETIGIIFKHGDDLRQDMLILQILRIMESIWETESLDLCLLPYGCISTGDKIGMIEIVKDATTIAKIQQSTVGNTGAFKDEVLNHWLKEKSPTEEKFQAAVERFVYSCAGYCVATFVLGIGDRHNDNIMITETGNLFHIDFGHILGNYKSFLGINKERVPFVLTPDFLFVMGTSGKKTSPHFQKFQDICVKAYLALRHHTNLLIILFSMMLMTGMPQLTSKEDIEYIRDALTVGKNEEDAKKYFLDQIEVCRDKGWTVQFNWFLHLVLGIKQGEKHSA
T2 sequence (P42338 whole entry): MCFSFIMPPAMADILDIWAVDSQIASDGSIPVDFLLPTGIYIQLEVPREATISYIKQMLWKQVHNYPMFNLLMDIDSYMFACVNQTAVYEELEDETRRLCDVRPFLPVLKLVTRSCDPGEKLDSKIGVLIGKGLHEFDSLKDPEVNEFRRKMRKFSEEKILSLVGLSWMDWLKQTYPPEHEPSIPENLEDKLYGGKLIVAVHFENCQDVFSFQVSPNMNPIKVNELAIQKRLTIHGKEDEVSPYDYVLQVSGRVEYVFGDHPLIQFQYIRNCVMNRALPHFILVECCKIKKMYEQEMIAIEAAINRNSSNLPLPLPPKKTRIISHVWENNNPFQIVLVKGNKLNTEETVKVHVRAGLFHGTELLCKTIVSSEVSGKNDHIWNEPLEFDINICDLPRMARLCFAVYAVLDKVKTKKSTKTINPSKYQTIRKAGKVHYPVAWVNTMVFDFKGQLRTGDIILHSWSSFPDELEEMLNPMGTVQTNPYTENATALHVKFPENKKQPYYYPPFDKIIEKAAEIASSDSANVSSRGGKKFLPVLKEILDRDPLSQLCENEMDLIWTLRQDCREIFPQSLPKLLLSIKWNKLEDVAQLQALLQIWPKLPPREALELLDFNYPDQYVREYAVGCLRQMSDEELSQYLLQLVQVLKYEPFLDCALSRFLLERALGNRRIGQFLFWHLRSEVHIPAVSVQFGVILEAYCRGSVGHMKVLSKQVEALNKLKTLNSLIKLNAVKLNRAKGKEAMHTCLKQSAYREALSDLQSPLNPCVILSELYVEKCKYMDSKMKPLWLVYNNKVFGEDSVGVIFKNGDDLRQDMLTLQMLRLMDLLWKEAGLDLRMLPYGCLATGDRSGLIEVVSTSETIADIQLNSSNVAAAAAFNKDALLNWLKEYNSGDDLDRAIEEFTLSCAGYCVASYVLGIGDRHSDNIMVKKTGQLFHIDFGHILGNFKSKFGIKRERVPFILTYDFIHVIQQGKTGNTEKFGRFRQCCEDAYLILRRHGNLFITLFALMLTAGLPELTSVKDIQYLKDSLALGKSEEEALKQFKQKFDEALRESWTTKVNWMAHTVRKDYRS
T2 sequence (P27986 whole entry partner): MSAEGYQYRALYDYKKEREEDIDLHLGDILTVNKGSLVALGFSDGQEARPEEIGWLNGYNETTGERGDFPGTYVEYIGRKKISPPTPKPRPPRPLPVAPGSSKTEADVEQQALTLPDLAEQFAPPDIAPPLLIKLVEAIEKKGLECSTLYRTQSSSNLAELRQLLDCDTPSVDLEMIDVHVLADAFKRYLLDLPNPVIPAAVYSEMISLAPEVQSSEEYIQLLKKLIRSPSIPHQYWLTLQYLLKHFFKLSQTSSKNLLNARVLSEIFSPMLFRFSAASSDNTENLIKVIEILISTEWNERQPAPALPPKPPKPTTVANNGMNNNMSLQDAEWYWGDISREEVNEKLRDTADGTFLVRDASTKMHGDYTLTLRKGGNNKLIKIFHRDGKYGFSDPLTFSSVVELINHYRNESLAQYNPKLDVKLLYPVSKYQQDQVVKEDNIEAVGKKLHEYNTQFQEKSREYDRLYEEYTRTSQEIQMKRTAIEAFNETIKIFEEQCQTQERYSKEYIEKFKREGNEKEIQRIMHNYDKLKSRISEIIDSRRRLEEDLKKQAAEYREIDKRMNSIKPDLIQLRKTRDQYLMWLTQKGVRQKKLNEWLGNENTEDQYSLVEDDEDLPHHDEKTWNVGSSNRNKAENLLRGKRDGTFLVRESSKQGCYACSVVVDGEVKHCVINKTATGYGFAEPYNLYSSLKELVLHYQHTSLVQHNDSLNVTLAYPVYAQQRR
T1 sequence (O00329 whole entry): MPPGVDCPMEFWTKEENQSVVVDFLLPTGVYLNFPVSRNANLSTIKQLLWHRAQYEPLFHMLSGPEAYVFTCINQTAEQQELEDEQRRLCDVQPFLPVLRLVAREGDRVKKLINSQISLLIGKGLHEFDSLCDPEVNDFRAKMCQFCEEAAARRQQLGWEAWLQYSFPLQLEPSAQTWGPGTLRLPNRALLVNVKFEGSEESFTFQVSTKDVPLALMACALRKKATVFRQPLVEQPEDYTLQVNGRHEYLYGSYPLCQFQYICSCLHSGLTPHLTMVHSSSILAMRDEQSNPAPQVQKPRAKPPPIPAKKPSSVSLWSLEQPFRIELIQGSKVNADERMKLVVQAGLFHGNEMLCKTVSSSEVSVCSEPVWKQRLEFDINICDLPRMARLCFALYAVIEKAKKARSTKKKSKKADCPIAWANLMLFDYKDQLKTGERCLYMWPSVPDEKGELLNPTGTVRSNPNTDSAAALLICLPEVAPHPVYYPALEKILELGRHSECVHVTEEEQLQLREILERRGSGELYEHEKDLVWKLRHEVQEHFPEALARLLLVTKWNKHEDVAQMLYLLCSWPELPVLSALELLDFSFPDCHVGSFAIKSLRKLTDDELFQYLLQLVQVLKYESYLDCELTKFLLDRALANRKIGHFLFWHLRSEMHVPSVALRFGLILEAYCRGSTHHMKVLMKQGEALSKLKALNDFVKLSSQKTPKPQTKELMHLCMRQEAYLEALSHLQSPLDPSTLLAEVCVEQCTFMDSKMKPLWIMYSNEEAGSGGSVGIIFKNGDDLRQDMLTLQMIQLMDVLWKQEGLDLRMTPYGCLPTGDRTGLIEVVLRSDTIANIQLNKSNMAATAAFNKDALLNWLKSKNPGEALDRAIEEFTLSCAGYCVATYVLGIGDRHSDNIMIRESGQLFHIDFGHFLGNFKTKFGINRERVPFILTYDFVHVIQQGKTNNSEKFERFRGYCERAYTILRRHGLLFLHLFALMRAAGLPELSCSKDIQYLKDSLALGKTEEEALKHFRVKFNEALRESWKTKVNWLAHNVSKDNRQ
T1 sequence (P27986 whole entry partner): as the sequence (P27986 whole entry partner) above

In the case of `Nc1nc(N)c(Cl)c(N[C@@H](CO)c2nc3c(Cl)cc(F)cc3c(=O)n2-c2cc[nH]n2)n1` [Compound 149, (R)-8-chloro-2-(1-((2,6-diamino-5-chloropyrimidin-4-yl)amino)-2-hydroxyethyl)-6-fluoro-3-(1H-pyrazol-3-yl)quinazolin-4(3H)-one], the half-inhibitory concentration (IC50) in experiment [1] (Table 2a, same assay) is 0.21 µM; in experiment [2] (Table 2a, same assay), 0.093 µM; in experiment [3] (Table 2a, same assay), over 10 µM.

For the compound `C[C@H](Nc1nc(N)nc(N)c1C#N)c1nc2cccc(Cl)c2c(=O)n1-c1cn[nH]c1` [Compound 15, (S)-2,4-diamino-6-((1-(5-chloro-4-oxo-3-(1H-pyrazol-4-yl)-3,4-dihydroquinazolin-2-yl)ethyl)amino)pyrimidine-5-carbonitrile], the results for the IC50 in experiment [1] (setting [4]), in experiment [2] (setting [4]) and in experiment [3] (setting [4]) were 0.0004 µM, 0.001 µM and 0.043 µM, respectively.

`C[C@H](Nc1nc(N)nc(N)c1Cl)c1nc2c(F)c(F)ccc2c(=O)n1-c1cc[nH]n1` [Compound 232, (S)-2-(1-((2,6-diamino-5-chloropyrimidin-4-yl)amino)ethyl)-7,8-difluoro-3-(1H-pyrazol-3-yl)quinazolin-4(3H)-one]: the IC50 was 0.19 µM in experiment [1] (Table 2a, same assay); 0.26 µM in experiment [2] (Table 2a, same assay); over 10 µM in experiment [3] (Table 2a, same assay).

As for `C[C@H](Nc1nc(N)nc(C(F)F)c1C#N)c1nc2cccc(C(F)F)c2c(=O)n1-c1cn[nH]c1` [Compound 179, (S)-2-amino-4-(difluoromethyl)-6-((1-(5-(difluoromethyl)-4-oxo-3-(1H-pyrazol-4-yl)-3,4-dihydroquinazolin-2-yl)ethyl)amino)pyrimidine-5-carbonitrile], the IC50 stood at 0.027 µM in experiment [1] (Table 2a, same assay); 0.078 µM in experiment [2] (Table 2a, same assay); 0.95 µM in experiment [3] (Table 2a, same assay).

Take `Cc1c[nH]nc1-n1c([C@H](C)Nc2ncnc(N)c2C#N)nc2cccc(Cl)c2c1=O` [Compound 3, (S)-4-amino-6-((1-(5-chloro-3-(4-methyl-1H-pyrazol-3-yl)-4-oxo-3,4-dihydroquinazolin-2-yl)ethyl)amino)pyrimidine-5-carbonitrile]: the results for the IC50 in experiment [1] (setting [4]), in experiment [2] (setting [4]) and in experiment [3] (setting [4]) were 0.002 µM, 0.055 µM and 3 µM, respectively.

Turning to `C[C@H](Nc1nc(N)nc(N)c1Cl)c1nc2c(Cl)ccc(Cl)c2c(=O)n1-c1cc[nH]n1` [Compound 69, (S)-5,8-dichloro-2-(1-((2,6-diamino-5-chloropyrimidin-4-yl)amino)ethyl)-3-(1H-pyrazol-3-yl)quinazolin-4(3H)-one], the IC50 was 0.006 µM in experiment [1] (setting [4]), 0.013 µM in experiment [2] (setting [4]) and over 10 µM in experiment [3].

In the case of `C[C@H](Nc1nc(N)nc(N)c1C#N)c1nc2ccccc2c(=O)n1-c1cc[nH]n1` [Compound 274, (S)-2,4-diamino-6-((1-(4-oxo-3-(1H-pyrazol-3-yl)-3,4-dihydroquinazolin-2-yl)ethyl)amino)pyrimidine-5-carbonitrile], the IC50 came to 0.003 µM in experiment [1] (Table 2a, same assay); 0.002 µM in experiment [2] (Table 2a, same assay); 0.76 µM in experiment [3] (Table 2a, same assay).

With `C[C@H](Nc1nc(N)nc(N)c1Cl)c1nc2ccc(F)c(Cl)c2c(=O)n1-c1cn[nH]c1` [Compound 263, (S)-5-chloro-2-(1-((2,6-diamino-5-chloropyrimidin-4-yl)amino)ethyl)-6-fluoro-3-(1H-pyrazol-4-yl)quinazolin-4(3H)-one], the IC50 in experiment [1] (Table 2a, same assay) came to 0.02 µM; in experiment [2] (Table 2a, same assay), 0.19 µM; in experiment [3] (Table 2a, same assay) it was 1.2 µM.

In the case of `CC[C@H](Nc1nc(F)nc2[nH]cnc12)c1nc2c(Cl)ccc(Cl)c2c(=O)n1-c1cn[nH]c1` [Compound 55, (S)-5,8-dichloro-2-(1-((2-fluoro-9H-purin-6-yl)amino)propyl)-3-(1H-pyrazol-4-yl)quinazolin-4(3H)-one], the IC50 in experiment [1] (setting [4]) was 0.065 µM; in experiment [2] (setting [4]), 0.57 µM; in experiment [3], over 10 µM.

`N#Cc1c(N[C@H](c2nc3c(Cl)cccc3c(=O)n2-c2cc[nH]n2)C2CC2)nc(N)nc1C(F)F` [Compound 196, (S)-2-amino-4-(((8-chloro-4-oxo-3-(1H-pyrazol-3-yl)-3,4-dihydroquinazolin-2-yl)(cyclopropyl)methyl)amino)-6-(difluoromethyl)pyrimidine-5-carbonitrile]: the IC50 in experiment [1] (Table 2a, same assay) was 0.019 µM; in experiment [2] (Table 2a, same assay), 0.019 µM; in experiment [3] (Table 2a, same assay), 6.9 µM.

Consider `C[C@H](Nc1nc(C(F)F)nc(N)c1C#N)c1nc2c(Cl)cc(F)cc2c(=O)n1-c1cc[nH]n1` [Compound 198, (S)-4-amino-6-((1-(8-chloro-6-fluoro-4-oxo-3-(1H-pyrazol-3-yl)-3,4-dihydroquinazolin-2-yl)ethyl)amino)-2-(difluoromethyl)pyrimidine-5-carbonitrile], for which the 50% inhibitory concentration (IC50) in experiment [1] (Table 2a, same assay) is 0.83 µM; in experiment [2] (Table 2a, same assay) it was 0.58 µM; in experiment [3] (Table 2a, same assay), over 10 µM.

Consider `Cc1cc(-n2c([C@H](C)Nc3ncnc(N)c3C#N)nc3cccc(Cl)c3c2=O)n[nH]1` [Compound 7, (S)-4-amino-6-((1-(5-chloro-3-(5-methyl-1H-pyrazol-3-yl)-4-oxo-3,4-dihydroquinazolin-2-yl)ethyl)amino)pyrimidine-5-carbonitrile], for which the 50% inhibitory concentration (IC50) in experiment [1] (setting [4]) was 0.043 µM; in experiment [2] (setting [4]), 0.2 µM; in experiment [3], over 10 µM.

With `N#Cc1c(N)nc(N)nc1N[C@H](c1nc2cccc(Cl)c2c(=O)n1-c1cc[nH]n1)C1CCC1` [Compound 128, (S)-2,4-diamino-6-(((5-chloro-4-oxo-3-(1H-pyrazol-3-yl)-3,4-dihydroquinazolin-2-yl)(cyclobutyl)methyl)amino)pyrimidine-5-carbonitrile], the IC50 in experiment [1] (Table 2a, same assay) worked out at 0.002 µM; in experiment [2] (Table 2a, same assay) it was 0.002 µM; in experiment [3] (Table 2a, same assay), 2 µM.

With `C[C@H](Nc1nc(N)nc(N)c1C#N)c1nc2c(Cl)ccc(Cl)c2c(=O)n1-c1cn[nH]c1` [Compound 217, (S)-2,4-diamino-6-((1-(5,8-dichloro-4-oxo-3-(1H-pyrazol-4-yl)-3,4-dihydroquinazolin-2-yl)ethyl)amino)pyrimidine-5-carbonitrile], the concentration for half-maximal inhibition (IC50) is 0.0002 µM in experiment [1] (Table 2a, same assay); 0.0006 µM in experiment [2] (Table 2a, same assay); 0.083 µM in experiment [3] (Table 2a, same assay).

Consider `C[C@H](Nc1nc(N)nc(C(F)F)c1Cl)c1nc2cccc(Cl)c2c(=O)n1-c1cc[nH]n1` [Compound 225, (S)-2-(1-((2-amino-5-chloro-6-(difluoromethyl)pyrimidin-4-yl)amino)ethyl)-5-chloro-3-(1H-pyrazol-3-yl)quinazolin-4(3H)-one], for which the IC50 was 0.3 µM in experiment [1] (Table 2a, same assay); 0.537 µM in experiment [2] (Table 2a, same assay); over 10 µM in experiment [3] (Table 2a, same assay).

Take `CC[C@H](Nc1nc(N)nc2[nH]nc(Br)c12)c1nc2c(C#N)cccc2c(=O)n1-c1cc[nH]n1` [Compound 80, (S)-2-(1-((6-amino-3-bromo-1H-pyrazolo[3,4-d]pyrimidin-4-yl)amino)propyl)-4-oxo-3-(1H-pyrazol-3-yl)-3,4-dihydroquinazoline-8-carbonitrile]: the half-maximal inhibitory concentration (IC50) is 0.035 µM in experiment [1] (setting [4]), 0.022 µM in experiment [2] (setting [4]) and over 10 µM in experiment [3].

Regarding `CC[C@H](Nc1nc(Cl)nc2[nH]ncc12)c1nc2c(Cl)ccc(Cl)c2c(=O)n1-c1cc[nH]n1` [Compound 82, (S)-5,8-dichloro-2-(1-((6-chloro-1H-pyrazolo[3,4-d]pyrimidin-4-yl)amino)propyl)-3-(1H-pyrazol-3-yl)quinazolin-4(3H)-one], the IC50 in experiment [1] (setting [4]) is 4.1 µM; in experiment [2] (setting [4]), 4.7 µM; in experiment [3] it was over 10 µM.

Turning to `CC[C@H](Nc1ncnc2sccc12)c1nc2c(Cl)ccc(Cl)c2c(=O)n1-c1cc[nH]n1` [Compound 54, (S)-5,8-dichloro-3-(1H-pyrazol-3-yl)-2-(1-(thieno[2,3-d]pyrimidin-4-ylamino)propyl)quinazolin-4(3H)-one], the IC50 in experiment [1] (setting [4]) was 0.018 µM; in experiment [2] (setting [4]), 0.24 µM; in experiment [3], over 10 µM.

On to `Nc1nc(N)c(Cl)c(N[C@H](c2nc3cccc(F)c3c(=O)n2-c2cc[nH]n2)C2CC2)n1` [Compound 10, (S)-2-(cyclopropyl((2,6-diamino-5-chloropyrimidin-4-yl)amino)methyl)-5-fluoro-3-(1H-pyrazol-3-yl)quinazolin-4(3H)-one], for which the half-inhibitory concentration (IC50) is 0.028 µM in experiment [1] (setting [4]), 0.071 µM in experiment [2] (setting [4]) and over 10 µM in experiment [3].

Regarding `C[C@H](Nc1nc(N)nc(N)c1C#N)c1nc2c(Cl)cc(F)cc2c(=O)n1-c1c[nH]cn1` [Compound 285, (S)-2,4-diamino-6-((1-(8-chloro-6-fluoro-3-(1H-imidazol-4-yl)-4-oxo-3,4-dihydroquinazolin-2-yl)ethyl)amino)pyrimidine-5-carbonitrile], the IC50 is 0.001 µM in experiment [1] (Table 2a, same assay); 0.004 µM in experiment [2] (Table 2a, same assay); 0.33 µM in experiment [3] (Table 2a, same assay).

For `CC[C@H](Nc1nc(N)nc(N)c1Cl)c1nc2ccc(F)cc2c(=O)n1-c1cc[nH]n1` [Compound 116, (S)-2-(1-((2,6-diamino-5-chloropyrimidin-4-yl)amino)propyl)-6-fluoro-3-(1H-pyrazol-3-yl)quinazolin-4(3h)-one], the concentration for half-maximal inhibition (IC50) in experiment [1] (setting [4]) was 0.044 µM; in experiment [2] (setting [4]), 0.21 µM; in experiment [3], over 10 µM.

As for `N#Cc1c(N)nc(N)nc1N[C@H](c1nc2cccc(C(F)F)c2c(=O)n1-c1cc[nH]n1)C1CCC1` [Compound 131, (S)-2,4-diamino-6-((cyclobutyl(5-(difluoromethyl)-4-oxo-3-(1H-pyrazol-3-yl)-3,4-dihydroquinazolin-2-yl)methyl)amino)pyrimidine-5-carbonitrile], the half-maximal inhibitory concentration (IC50) in experiment [1] (Table 2a, same assay) was 0.004 µM; in experiment [2] (Table 2a, same assay) it was 0.002 µM; in experiment [3] (Table 2a, same assay), 2 µM.

Regarding `CC[C@H](Nc1ncnc2ccoc12)c1nc2c(Cl)ccc(Cl)c2c(=O)n1-c1cc[nH]n1` [Compound 62, (S)-5,8-dichloro-2-(1-(furo[3,2-d]pyrimidin-4-ylamino)propyl)-3-(1H-pyrazol-3-yl)quinazolin-4(3H)-one], the IC50 is 0.009 µM in experiment [1] (setting [4]), 0.12 µM in experiment [2] (setting [4]) and over 10 µM in experiment [3].
